Experiments:
[1] = (§1) The drug is tested on Z-024 corresponding to pig gut metagenome with ENA study accession number: PRJEB37062 and ENA sample accession number: ERS12561823 for biotransformation under anaerobic condition. The drug concentrations were measured over 9 timepoints collected between 0 and 24 hours of incubation by liquid-chromatography-coupled mass spectrometry (LC–MS); settings: 2 µM
[2] = as §1, with “Z-014” for “Z-024”, “rat” for “pig”, “ERS12561814” for “ERS12561823”; settings: 2 µM
[3] = as §1, with “Z-011” for “Z-024”, “mouse” for “pig”, “ERS12561811” for “ERS12561823”; settings: 2 µM
[4] = as §1, with “Z-007” for “Z-024”, “rat” for “pig”, “ERS12561807” for “ERS12561823”; settings: 2 µM
[5] = as §1, with “Z-002” for “Z-024”, “rabbit” for “pig”, “ERS12561802” for “ERS12561823”; settings: 2 µM
[6] = as §1, with “Z-001” for “Z-024”, “mouse” for “pig”, “ERS12561801” for “ERS12561823”; settings: 2 µM
[7] = as §1, with “WLS-052” for “Z-024”, “human” for “pig”, “ERS12561747” for “ERS12561823”; settings: 2 µM
[8] = as §1, with “WLS-027” for “Z-024”, “human” for “pig”, “ERS12561744” for “ERS12561823”; settings: 2 µM
[9] = as §1, with “WLS-007” for “Z-024”, “human” for “pig”, “ERS12561742” for “ERS12561823”; settings: 2 µM
[10] = as §1, with “WLS-006” for “Z-024”, “human” for “pig”, “ERS12561741” for “ERS12561823”; settings: 2 µM
[11] = human gut metagenome, 24 h, 2 µM
[12] = human gut metagenome, 24 h, 2 µM; remark: listed apart in the source
[13] = human gut metagenome, 24 h, 2 µM; remark: listed apart in the source
[14] = human gut metagenome, 24 h, 2 µM; remark: listed apart in the source
[15] = human gut metagenome, 24 h, 2 µM; remark: listed apart in the source
[16] = human gut metagenome, 24 h, 2 µM; remark: listed apart in the source
[17] = human gut metagenome, 24 h, 2 µM; remark: listed apart in the source
[18] = as §1, with “Z-017” for “Z-024”, “mouse” for “pig”, “ERS12561816” for “ERS12561823”; settings: 2 µM
[19] = as §1, with “WLS-220” for “Z-024”, “human” for “pig”, “ERS12561769” for “ERS12561823”; settings: 2 µM
[20] = as §1, with “WLS-073” for “Z-024”, “human” for “pig”, “ERS12561749” for “ERS12561823”; settings: 2 µM
Note: call rule not given here.

SMILES | Bacterial Biotransformation [1] | Bacterial Biotransformation [2] | Bacterial Biotransformation [3] | Bacterial Biotransformation [4] | Bacterial Biotransformation [5] | Bacterial Biotransformation [6] | Bacterial Biotransformation [7] | Bacterial Biotransformation [8] | Bacterial Biotransformation [9] | Bacterial Biotransformation [10] | Bacterial Biotransformation [11] | Bacterial Biotransformation [12] | Bacterial Biotransformation [13] | Bacterial Biotransformation [14] | Bacterial Biotransformation [15] | Bacterial Biotransformation [16] | Bacterial Biotransformation [17] | Bacterial Biotransformation [18] | Bacterial Biotransformation [19] | Bacterial Biotransformation [20]
CSc1ccc2c(c1)C(N1CCN(C)CC1)Cc1ccccc1S2.O=C(O)/C=C\C(=O)O (centres undefined) | Compound metabolized | Compound NOT metabolized | Compound metabolized | Compound metabolized | Compound metabolized | Compound metabolized | Compound metabolized | Compound NOT metabolized | Compound NOT metabolized | Compound NOT metabolized | Compound NOT metabolized | Compound NOT metabolized | Compound NOT metabolized | Compound NOT metabolized | Compound NOT metabolized | Compound NOT metabolized | Compound metabolized | – | – | –
CCc1oc2ccccc2c1C(=O)c1cc(Br)c(O)c(Br)c1 [BENZBROMARONE] | Compound NOT metabolized | Compound NOT metabolized | Compound metabolized | Compound NOT metabolized | Compound metabolized | Compound NOT metabolized | Compound metabolized | Compound metabolized | Compound metabolized | Compound metabolized | Compound metabolized | Compound NOT metabolized | Compound metabolized | Compound metabolized | Compound metabolized | Compound metabolized | Compound NOT metabolized | Compound NOT metabolized | Compound metabolized | –
CN1CCC[C@@H]1CCO[C@](C)(c1ccccc1)c1ccc(Cl)cc1.O=C(O)/C=C/C(=O)O [CLEMASTINE FUMARATE] | Compound NOT metabolized | Compound NOT metabolized | Compound NOT metabolized | Compound NOT metabolized | Compound NOT metabolized | Compound NOT metabolized | Compound NOT metabolized | Compound metabolized | Compound NOT metabolized | Compound NOT metabolized | Compound metabolized | Compound NOT metabolized | Compound NOT metabolized | Compound metabolized | Compound metabolized | Compound metabolized | Compound metabolized | – | Compound NOT metabolized | Compound NOT metabolized
COc1cc2nc(N3CCN(C(=O)C4COc5ccccc5O4)CC3)nc(N)c2cc1OC.CS(=O)(=O)O (centres undefined) [DOXAZOSIN MESYLATE] | Compound NOT metabolized | Compound NOT metabolized | Compound NOT metabolized | Compound NOT metabolized | Compound NOT metabolized | Compound NOT metabolized | Compound NOT metabolized | Compound metabolized | Compound metabolized | Compound metabolized | Compound NOT metabolized | Compound metabolized | Compound metabolized | Compound metabolized | Compound metabolized | Compound metabolized | Compound metabolized | Compound NOT metabolized | Compound metabolized | –
CCOC(=O)[C@H](CCc1ccccc1)N[C@@H](C)C(=O)N1CCC[C@H]1C(=O)O.O=C(O)/C=C\C(=O)O [ENALAPRIL MALEATE] | Compound metabolized | – | – | Compound NOT metabolized | Compound metabolized | Compound NOT metabolized | Compound NOT metabolized | Compound NOT metabolized | Compound NOT metabolized | Compound NOT metabolized | Compound NOT metabolized | Compound NOT metabolized | Compound NOT metabolized | Compound NOT metabolized | Compound NOT metabolized | Compound NOT metabolized | Compound NOT metabolized | – | Compound NOT metabolized | Compound NOT metabolized
CN1[C@@H]2CC[C@H]1C[C@@H](OC(=O)[C@H](CO)c1ccccc1)C2 [HYOSCYAMINE] | Compound NOT metabolized | Compound NOT metabolized | – | Compound NOT metabolized | – | Compound NOT metabolized | – | Compound NOT metabolized | Compound metabolized | – | – | – | – | – | Compound metabolized | Compound metabolized | – | Compound NOT metabolized | – | Compound NOT metabolized
C#C[C@]1(OC(C)=O)CC[C@H]2[C@@H]3CCC4=CC(=O)CC[C@@H]4[C@H]3CC[C@@]21C [NORETHINDRONE ACETATE] | Compound metabolized | – | Compound metabolized | – | Compound metabolized | Compound metabolized | Compound metabolized | Compound metabolized | – | – | – | Compound metabolized | – | Compound metabolized | – | Compound metabolized | Compound NOT metabolized | Compound metabolized | – | Compound metabolized
Cc1cc2c(s1)Nc1ccccc1N=C2N1CCN(C)CC1 [OLANZAPINE] | Compound NOT metabolized | Compound NOT metabolized | Compound NOT metabolized | Compound NOT metabolized | Compound metabolized | Compound metabolized | Compound NOT metabolized | Compound NOT metabolized | Compound NOT metabolized | Compound NOT metabolized | Compound NOT metabolized | Compound NOT metabolized | Compound NOT metabolized | Compound NOT metabolized | Compound metabolized | – | – | Compound NOT metabolized | Compound NOT metabolized | –
COc1ccc(Cc2nccc3cc(OC)c(OC)cc23)cc1OC [PAPAVERINE] | Compound metabolized | Compound NOT metabolized | Compound NOT metabolized | Compound NOT metabolized | Compound metabolized | Compound metabolized | Compound metabolized | Compound metabolized | Compound metabolized | Compound NOT metabolized | Compound metabolized | Compound NOT metabolized | Compound metabolized | Compound metabolized | Compound metabolized | Compound metabolized | Compound metabolized | Compound NOT metabolized | Compound metabolized | –

From ChEMBL document CHEMBL5724914, “Linking interpersonal differences in gut microbiota composition and drug biotransformation activity” (2024)
